This is an account of results in US12723050B2, “Crystal form of compound and use thereof” (TENNOR THERAPEUTICS (SUZHOU) LIMITED, priority 2023, dated 2026).

Type in all cases: physicochemical
Data set [1] in a line: Hygroscopicity test (dynamic vapor sorption, DVS), with XRPD before and after. As to conditions: for moisture uptake (DVS): 25° C./80% RH. The protocol: (§1) DVS profiles were acquired on SMS (Surface Measurement Systems) DVS Intrinsic and DVS Intrinsic plus. The relative humidity at 25° C. was calibrated using the deliquescence points of LiCl, Mg(NO3)2, and KCl.
Data set [2] is described as follows: Solid stability evaluation (XRPD and HPLC) of samples left to stand open. As to conditions: for HPLC peak 6, RRT 1.00 (main peak): in %. The protocol:
The crystal form A was left to stand open at 60° C. for 24 hours, and at 25° C./60% RH and 40° C./75% RH for 1 week. The physical and chemical stability of the samples was detected by XRPD and HPLC. The stability evaluation results are summarized in Table 4, the XRPD results are shown in FIG. 12, and the HPLC results are shown in Table 5 and FIG. 13.

Data set [3] in a line: Crystal form stability on drying or heating (XRPD). The protocol: 40.05 g of the crude compound of formula (I) was weighed and mixed with ethanol of 5 folds by mass, and the mixture was stirred at 25° C. for 30 minutes. At this point, a visible solid precipitate was observed. The mixture was stirred for another 2-3 hours, followed by filtration. The wet cake was washed with 80 mL of ethanol. Three solvate crystal forms, C1, C2, and C3, with different structures were detected in the undried wet product of the compound of formula (I) formed in ethanol. Their XRPD results are shown in FIGS. 9A-9C, Table 2-1, Table 2-2, and Table 2-3.
Furthermore, the sample had 3 endothermic peaks at 85.6° C., 130.7° C., and 144.3° C. (peak temperatures). […] To further investigate the substantial TGA weight loss of the crystal form B sample, a heating experiment was performed on it. […] Due to the crystal form conversion upon sample heating, combined with the substantial TGA weight loss and the solvent residue indicated by the nuclear magnetic resonance results after heating, it can be inferred that crystal form B is a toluene solvate.
as §1

Where [4] appears, read: open, 60° C. 24 hours, 25° C./60% RH and 40° C./75% RH 1 week.

Turning to `CO[C@H]1/C=C/O[C@@]2(C)Oc3c(C)c(O)c4c(c3C2=O)C2=NC3(CCN(CCn5c([N+](=O)[O-])cnc5C)CC3)NC2=C(NC(=O)/C(C)=C\C=C\[C@H](C)[C@H](O)[C@@H](C)[C@@H](O)[C@@H](C)[C@H](OC(C)=O)[C@@H]1C)C4=O` [amorphous form], in data set [1], the “moisture uptake (DVS)” value was determined as 5.941%.

For `CO[C@H]1/C=C/O[C@@]2(C)Oc3c(C)c(O)c4c(c3C2=O)C2=NC3(CCN(CCn5c([N+](=O)[O-])cnc5C)CC3)NC2=C(NC(=O)/C(C)=C\C=C\[C@H](C)[C@H](O)[C@@H](C)[C@@H](O)[C@@H](C)[C@H](OC(C)=O)[C@@H]1C)C4=O` [crystal form A], the “moisture uptake (DVS)” value in data set [1] was 2.880%. Further, the “crystal form conversion, XRPD before and after the DVS test” value in data set [1] (before and after DVS test) is “no crystal form conversion”. Also, the “stability of the crystal form” value in data set [1] (judged from XRPD before and after DVS test) is given as “good stability”. Further, in data set [2] (25° C./60% RH/Open/1 week), the “HPLC impurity peak 1, RRT 0.81” value is on record as 0.18; the “HPLC impurity peak 2, RRT 0.83” value turned out to be 0.06; the “HPLC impurity peak 3, RRT 0.87” value came out at 0.05; the “HPLC impurity peak 4, RRT 0.91” value is given as 0.06. Besides, in data set [2] (25° C./60% RH/Open/1 week), the “HPLC impurity peak 5, RRT 0.97” value is recorded as 0.19 and the “HPLC peak 6, RRT 1.00 (main peak)” value worked out at 99.45. In data set [2] (25° C./60° C. RH, 1 week, open), the “Change in crystal form” value is “No” and the HPLC purity is 99.45 area %. For the same compound, in data set [2] (40° C./75% RH, 1 week, open), the “Change in crystal form” value is given as “No” and the HPLC purity amounted to 99.29 area %. Further, in data set [2] (40° C./75% RH/Open/1 week), the “HPLC impurity peak 1, RRT 0.81” value was found to be 0.38; the “HPLC impurity peak 2, RRT 0.83” value was determined as 0.06; the “HPLC impurity peak 3, RRT 0.87” value stood at 0.05; the “HPLC impurity peak 4, RRT 0.91” value turned out to be 0.06. In addition, in data set [2] (40° C./75% RH/Open/1 week), the “HPLC impurity peak 5, RRT 0.97” value was 0.16 and the “HPLC peak 6, RRT 1.00 (main peak)” value is reported as 99.29. For the same compound, in data set [2] (60° C., 24 hours, open), the “Change in crystal form” value is “No” and the HPLC purity turned out to be 99.33 area %. Besides, in data set [2] (60° C./open/24 hours), the “HPLC impurity peak 1, RRT 0.81” value is reported as 0.30; the “HPLC impurity peak 2, RRT 0.83” value was 0.07; the “HPLC impurity peak 3, RRT 0.87” value was 0.06; the “HPLC impurity peak 4, RRT 0.91” value stood at 0.07. Moreover, in data set [2] (60° C./open/24 hours), the “HPLC impurity peak 5, RRT 0.97” value is 0.17 and the “HPLC peak 6, RRT 1.00 (main peak)” value worked out at 99.33. Moreover, in data set [2] (Starting sample), the “HPLC impurity peak 1, RRT 0.81” value was 0.29; the “HPLC impurity peak 2, RRT 0.83” value came out at 0.07; the “HPLC impurity peak 3, RRT 0.87” value was determined as 0.08; the “HPLC impurity peak 4, RRT 0.91” value was 0.07. For the same compound, in data set [2] (Starting sample), the “HPLC impurity peak 5, RRT 0.97” value was found to be 0.17; the HPLC purity came to 99.32 area %; the “HPLC peak 6, RRT 1.00 (main peak)” value is 99.32. Moreover, in data set [2] (setting [4]), the “change in purity (HPLC)” value is given as “no significant change in purity” and the “crystal form conversion (XRPD)” value is listed as “no crystal form conversion”.

As to `CO[C@H]1/C=C/O[C@@]2(C)Oc3c(C)c(O)c4c(c3C2=O)C2=NC3(CCN(CCn5c([N+](=O)[O-])cnc5C)CC3)NC2=C(NC(=O)/C(C)=C\C=C\[C@H](C)[C@H](O)[C@@H](C)[C@@H](O)[C@@H](C)[C@H](OC(C)=O)[C@@H]1C)C4=O` [crystal form B], in data set [3] (after heating or drying, all converted to crystal form A), the crystal form stability entry is given as “poor crystal form stability”. Besides, the “crystal form after air-drying (XRPD)” value in data set [3] (air-drying at room temperature for 24 hours) was “remained unchanged”. Further, the “crystal form after heating (XRPD)” value in data set [3] (heating to 115° C. and cooling to room temperature) is listed as “remained unchanged”; in data set [3] (heating to 140° C. and cooling to room temperature), “converted to crystal form A”.

`CO[C@H]1/C=C/O[C@@]2(C)Oc3c(C)c(O)c4c(c3C2=O)C2=NC3(CCN(CCn5c([N+](=O)[O-])cnc5C)CC3)NC2=C(NC(=O)/C(C)=C\C=C\[C@H](C)[C@H](O)[C@@H](C)[C@@H](O)[C@@H](C)[C@H](OC(C)=O)[C@@H]1C)C4=O` [crystal form C1]: the “crystal form after drying (XRPD)” value in data set [3] (wet product from ethanol, after drying) was “converted to crystal form A”.
